This passage reports class and IC50 results from patent US20070010671A1, “Novel quinazoline derivatives and methods of treatment related to the use thereof” (priority 2003, published 2007).

This assay addresses MCH receptor (Homo sapiens, UniProt Q99705). The assay can be described thus: High throughput functional screening FLIPR/FDSS6000: inhibition of MCH-evoked intracellular Ca2+ changes. The assay is classed as cell-based. To be noted: for class: class by percent of control at 10^-7 M or IC50; for IC50: class by percent of control at 10^-7 M or by IC50, read-out: class. In short, it runs like this:
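Cells expressing a non-endogenous, constitutively active MCH receptor were loaded with 4 μM Fluo4-AM (with probenecid) for 1 hr at 37° C. Test compound was preincubated 3 min at 37° C before 50 nM MCH was added. The [Ca2+]i transient was read at Ex 488/Em 530 nm for 290 s.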

Molecules are shown by their SMILES. Where only a bound is given, the exact number is not on record here.

In the case of `COc1ccccc1CNC(=S)NC[C@H]1CC[C@@H](Nc2nc(N(C)C)c3ccccc3n2)CC1` [compound 788], the class is recorded as 3 (Class 3: The value of percent of control at 10^−7 M was more than 60% or the value of IC50 was more than 200 nM.). As for `CN(C)c1nc(N[C@H]2CC[C@@H](CNC(=S)Nc3ccc4c(c3)OCCO4)CC2)nc2ccccc12` [compound 789], the class is recorded as 3 (Class 3: The value of percent of control at 10^−7 M was more than 60% or the value of IC50 was more than 200 nM.). Take `Cc1ccc(NC(=S)NC[C@H]2CC[C@@H](Nc3nc(N(C)C)c4ccccc4n3)CC2)cc1C` [compound 790]: the class is 3 (Class 3: The value of percent of control at 10^−7 M was more than 60% or the value of IC50 was more than 200 nM.). Turning to `CN(C)c1nc(N[C@H]2CC[C@@H](CNC(=S)Nc3ccc4c(c3)OCO4)CC2)nc2ccccc12` [compound 791], the class is given as 3 (Class 3: The value of percent of control at 10^−7 M was more than 60% or the value of IC50 was more than 200 nM.). Take `Cc1c(Cl)cccc1NC(=S)NC[C@H]1CC[C@@H](Nc2nc(N(C)C)c3ccccc3n2)CC1` [compound 792]: the class is given as 3 (Class 3: The value of percent of control at 10^−7 M was more than 60% or the value of IC50 was more than 200 nM.).

For the compound `CN(C)c1nc(N[C@H]2CC[C@@H](CNC(=S)Nc3ccc(Br)cc3OC(F)(F)F)CC2)nc2ccccc12` [compound 793], the class is 2 (Class 2: The value of percent of control at 10^−7 M was from 40% to 60% or the value of IC50 was from 50 nM to 200 nM.). Take `COc1cc(NC(=S)NC[C@H]2CC[C@@H](Nc3nc(N(C)C)c4ccccc4n3)CC2)c(OC)cc1Cl` [compound 794]: the class is recorded as 3 (Class 3: The value of percent of control at 10^−7 M was more than 60% or the value of IC50 was more than 200 nM.). As to `CN(C)c1nc(N[C@H]2CC[C@@H](CNC(=S)NCCCCc3ccccc3)CC2)nc2ccccc12` [compound 795], the class was 3 (Class 3: The value of percent of control at 10^−7 M was more than 60% or the value of IC50 was more than 200 nM.). With `CN(C)c1nc(N[C@H]2CC[C@@H](CNC(=S)Nc3ccc(C(C)(C)C)cc3)CC2)nc2ccccc12` [compound 796], the class is 3 (Class 3: The value of percent of control at 10^−7 M was more than 60% or the value of IC50 was more than 200 nM.). Take `CN(C)c1nc(N[C@H]2CC[C@@H](CNC(=S)Nc3cc(Cl)ccc3F)CC2)nc2ccccc12` [compound 797, N-(5-choloro-2-fluorophenyl)-N′-[(cis-4-{[4-(dimethylamino)-quinazolin-2-yl]amino}cyclohexyl)methyl]thiourea]: the class was 3 (Class 3: The value of percent of control at 10^−7 M was more than 60% or the value of IC50 was more than 200 nM.). `CN(C)c1nc(N[C@H]2CC[C@@H](CNC(=S)NCC3CC3)CC2)nc2ccccc12` [compound 800]: the IC50 fell in the range of 0.05 to 0.2 µM. Consider `CCOC(=O)c1c(NC(=S)NC[C@H]2CC[C@@H](Nc3nc(N(C)C)c4ccccc4n3)CC2)sc2c1CCCC2` [compound 801, ethyl 2-[({[(cis-4-{[4-(dimethylamino)quinazolin-2-yl]amino}cyclohexyl)methyl]amino}carbonothioyl)amino]-4.5.6.7-tetrahydro-1-benzothiophene-3-carboxylate], for which the IC50 was greater than 0.2 µM. Still for that read-out and setting: the figure for `COC(=O)c1sccc1NC(=S)NC[C@H]1CC[C@@H](Nc2nc(N(C)C)c3ccccc3n2)CC1` [compound 802] is greater than 0.2 µM.

Turning to `CN(C)c1nc(N[C@H]2CC[C@@H](CNC(=S)Nc3ccc(F)cc3Br)CC2)nc2ccccc12` [compound 803], the IC50 is greater than 0.2 µM. On the same count and under the same terms, the same measure for `CN(C)c1nc(N[C@H]2CC[C@@H](CNC(=S)Nc3ccc(F)c(Cl)c3)CC2)nc2ccccc12` [compound 804]: greater than 0.2 µM; for `CCCCc1ccc(NC(=S)NC[C@H]2CC[C@@H](Nc3nc(N(C)C)c4ccccc4n3)CC2)c(C)c1` [compound 805]: greater than 0.2 µM; for `CN(C)c1ccc(NC(=S)NC[C@H]2CC[C@@H](Nc3nc(N(C)C)c4ccccc4n3)CC2)cc1` [compound 806]: greater than 0.2 µM.

Consider `CN(C)c1nc(N[C@H]2CC[C@@H](CNC(=S)NCCN3CCOCC3)CC2)nc2ccccc12` [compound 808], for which the IC50 is greater than 0.2 µM. Turning to `CN(C)c1nc(N[C@H]2CC[C@@H](CNC(=S)Nc3cccnc3)CC2)nc2ccccc12` [compound 809], the IC50 is greater than 0.2 µM. Still for that read-out and setting: the same measure for `CN(C)c1nc(N[C@H]2CC[C@@H](CNC(=S)NCCCN3CCOCC3)CC2)nc2ccccc12` [compound 810]: greater than 0.2 µM.

As for `CCN(CC)c1ccc(NC(=S)NC[C@H]2CC[C@@H](Nc3nc(N(C)C)c4ccccc4n3)CC2)cc1` [compound 811], the IC50 was greater than 0.2 µM. Same read-out and setting: the figure for `CN(C)c1nc(N[C@H]2CC[C@@H](CNC(=S)Nc3ccc(/N=N/c4ccccc4)cc3)CC2)nc2ccccc12` [compound 812] is greater than 0.2 µM; for `CN(C)c1nc(N[C@H]2CC[C@@H](CNC(=S)NCCN3CCCCC3)CC2)nc2ccccc12` [compound 813] it is greater than 0.2 µM. Turning to `CN(C)c1nc(N[C@H]2CC[C@@H](CNC(=S)Nc3ccc(-n4cccn4)cc3)CC2)nc2ccccc12` [compound 814], the IC50 was greater than 0.2 µM. Still for that read-out and setting: the figure for `CN(C)c1nc(N[C@H]2CC[C@@H](CNC(=S)Nc3cccc4nsnc34)CC2)nc2ccccc12` [compound 815] is greater than 0.2 µM.

For `CN(C)c1nc(N[C@H]2CC[C@@H](CNC(=S)Nc3ccc4nsnc4c3)CC2)nc2ccccc12` [compound 816], the IC50 was greater than 0.2 µM. On the same count and under the same terms, the figure for `Cc1noc(C)c1NC(=S)NC[C@H]1CC[C@@H](Nc2nc(N(C)C)c3ccccc3n2)CC1` [compound 817] is greater than 0.2 µM. Consider `CN(C)c1nc(N[C@H]2CC[C@@H](CNC(=S)Nc3ccc(-c4cnco4)cc3)CC2)nc2ccccc12` [compound 818], for which the IC50 is greater than 0.2 µM.

For `Cc1onc(-c2ccccc2)c1NC(=S)NC[C@H]1CC[C@@H](Nc2nc(N(C)C)c3ccccc3n2)CC1` [compound 819], the IC50 lay in the range of 0.05 to 0.2 µM.

As for `CN(C)c1nc(N[C@H]2CC[C@@H](CNC(=S)Nc3ccc(N4CCOCC4)nc3)CC2)nc2ccccc12` [compound 820], the IC50 is greater than 0.2 µM. In the case of `CN(C)c1nc(N[C@H]2CC[C@@H](CNC(=S)Nc3ccc(Oc4ccccc4)nc3)CC2)nc2ccccc12` [compound 821], the IC50 was greater than 0.2 µM. Still for that read-out and setting: the figure for `CN(C)c1nc(N[C@H]2CC[C@@H](NC(=O)Nc3ccc(F)cc3[N+](=O)[O-])CC2)nc2ccccc12` [compound 822, N-(cis-4-{[4-(dimethylamino)quinazolin-2-yl]amino}cyclohexyl)-N′-(4-fluoro-2-nitrophenyl)urea] is 0.05 to 0.2 µM. Still for that read-out and setting: the same measure for `CN(C)c1nc(N[C@H]2CC[C@@H](NC(=O)Nc3ccc(F)cc3C(F)(F)F)CC2)nc2ccccc12` [compound 823]: greater than 0.2 µM; for `CN(C)c1nc(N[C@H]2CC[C@@H](NC(=O)NCc3ccc(F)cc3)CC2)nc2ccccc12` [compound 824, N-(cis-4-{[4-(dimethylamino)quinazolin-2-yl]amino}cyclohexyl)-N′-(4-fluorobenzyl)urea]: less than 0.05 µM.

Turning to `CCCCCCCOc1ccc(NC(=O)N[C@H]2CC[C@@H](Nc3nc(N(C)C)c4ccccc4n3)CC2)cc1` [compound 825], the IC50 is greater than 0.2 µM. As for `CN(C)c1nc(N[C@H]2CC[C@@H](NC(=O)Nc3ccc(I)cc3)CC2)nc2ccccc12` [compound 826, N-(cis-4-{[4-(dimethylamino)quinazolin-2-yl]amino}cyclohexyl)-N′-(4-iodophenyl)urea], the IC50 lay in the range of 0.05 to 0.2 µM.
